{"source": "patent US9238611B2", "about": "“Process for separating aryl carboxylic acids” (Reliance Industries Limited, priority 2012, dated 2016)", "origin": "cited, not measured here", "conditions": "per one milligram of the terephthalate salt", "data": [{"molecule": "COc1ccc2c3c1O[C@H]1C(=O)CC[C@@]4(O)[C@@H](C2)N(C)CC[C@]314.COc1ccc2c3c1O[C@H]1C(=O)CC[C@@]4(O)[C@@H](C2)N(C)CC[C@]314.O=C(O)c1ccc(C(=O)O)cc1", "note": "[terephthalas oxycodonae]", "values": [{"measurement": "amount of hydrochloridum oxycodonae pharmacologically equivalent to one milligram", "result": 1.13, "unit": "mg"}]}]}
